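The compound was tested at five concentrations on cells cultured in 96-well plates, with a 48-hour exposure period. At the GI50, growth is halved.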 Calls of active or inactive are those of the source. Rule as the data show it: active = GI50 up to about 1.1 µM and inactive = higher.
What was measured:
Assay in all cases: DTP human tumour cell line panel, 48 h
EKVX = tested on: EKVX
KM12 = tested on: KM12
DU-145 = tested on: DU-145
SF-295 = tested on: SF-295
SW-620 = tested on: SW-620
NCI-H522 = tested on: NCI-H522
UO-31 = tested on: UO-31
UACC-62 = tested on: UACC-62
SR = tested on: SR
Malme-3M = tested on: Malme-3M
MOLT-4 = tested on: MOLT-4
786-0 = tested on: 786-0
SF-268 = tested on: SF-268
HCT-15 = tested on: HCT-15
TK-10 = tested on: TK-10
RPMI-8226 = tested on: RPMI-8226
SN12C = tested on: SN12C
NCI-H23 = tested on: NCI-H23
T47D = tested on: T47D
A498 = tested on: A498

Row | SMILES | GI50 (EKVX) | GI50 (KM12) | GI50 (DU-145) | GI50 (SF-295) | GI50 (SW-620) | GI50 (NCI-H522) | GI50 (UO-31) | GI50 (UACC-62) | GI50 (SR) | GI50 (Malme-3M) | GI50 (MOLT-4) | GI50 (786-0) | GI50 (SF-268) | GI50 (HCT-15) [µM] | GI50 (TK-10) | GI50 (RPMI-8226) | GI50 (SN12C) | GI50 (NCI-H23) | GI50 (T47D) | GI50 (A498)
1 | CC1=NN(C(=O)CC(=O)Nc2ccccc2Cl)C(=O)C1/N=N\c1ccc(S(=O)(=O)c2ccc(/N=N/C3C(=O)N(C(=O)CC(=O)Nc4ccccc4Cl)N=C3C)cc2)cc1 (configuration not stated) | > 100 µM (inactive) | > 100 µM (inactive) | > 100 µM (inactive) | > 100 µM (inactive) | > 100 µM (inactive) | > 100 µM (inactive) | > 100 µM (inactive) | > 100 µM (inactive) | > 100 µM (inactive) | > 100 µM (inactive) | > 100 µM (inactive) | > 100 µM (inactive) | > 100 µM (inactive) | > 100 | > 100 µM (inactive) | > 100 µM (inactive) | > 100 µM (inactive) | > 100 µM (inactive) | > 100 µM (inactive) | 
2 | O=C(C1OC1c1ccc([N+](=O)[O-])cc1)C12CC3CC(CC(C3)C1)C2 (configuration not stated) | 18.8 µM (inactive) | 14.7 µM (inactive) | 18.2 µM (inactive) | 12.3 µM (inactive) | 20.7 µM (inactive) | 29 µM (inactive) | 18.3 µM (inactive) | 12.1 µM (inactive) |  | 16.9 µM (inactive) | 18.5 µM (inactive) | 9.98 µM (inactive) | 18.5 µM (inactive) | 13.2 | 18.1 µM (inactive) |  | 13.1 µM (inactive) | 13.4 µM (inactive) | 16.6 µM (inactive) | 20.9 µM (inactive)
3 | CC(=O)C(=C(I)I)c1ccccc1 | 25.7 µM (inactive) | 20.9 µM (inactive) | 29.7 µM (inactive) | 25.9 µM (inactive) | 18.3 µM (inactive) | 12.7 µM (inactive) | 19.2 µM (inactive) | 25.5 µM (inactive) | 13.1 µM (inactive) | 12.3 µM (inactive) | 13.4 µM (inactive) | 19.7 µM (inactive) | 25.1 µM (inactive) | 29.3 |  |  | 13.3 µM (inactive) | 16.8 µM (inactive) | 20.4 µM (inactive) | 22 µM (inactive)
4 | COC(=O)c1ccccc1CC1Cc2ccc3c(c2C1=O)CCC3 (configuration not stated) | 25.6 µM (inactive) | 64.9 µM (inactive) | > 100 µM (inactive) | 57.1 µM (inactive) | 99.1 µM (inactive) | 22.1 µM (inactive) | 49.4 µM (inactive) | 39.5 µM (inactive) | 31 µM (inactive) | 28.8 µM (inactive) | 25.1 µM (inactive) | 80.5 µM (inactive) | > 100 µM (inactive) | 50 | > 100 µM (inactive) | 30.9 µM (inactive) | > 100 µM (inactive) | 39.6 µM (inactive) | 19.7 µM (inactive) | 
5 | SCCSCCCSCCS | > 100 µM (inactive) | > 100 µM (inactive) | 56.4 µM (inactive) | 76.9 µM (inactive) | > 100 µM (inactive) | 19.3 µM (inactive) | 15.7 µM (inactive) | > 100 µM (inactive) | 4.16 µM (inactive) |  | 4.97 µM (inactive) | > 100 µM (inactive) | > 100 µM (inactive) | > 100 |  |  | > 100 µM (inactive) | > 100 µM (inactive) | 50.2 µM (inactive) | 
6 | N#CCc1nc(Cc2ccccc2)n[nH]1 | > 100 µM (inactive) | > 100 µM (inactive) | > 100 µM (inactive) | > 100 µM (inactive) | > 100 µM (inactive) | > 100 µM (inactive) | > 100 µM (inactive) | > 100 µM (inactive) | > 100 µM (inactive) | > 100 µM (inactive) | > 100 µM (inactive) | > 100 µM (inactive) | > 100 µM (inactive) | > 100 | > 100 µM (inactive) |  | > 100 µM (inactive) | > 100 µM (inactive) | > 100 µM (inactive) | > 100 µM (inactive)
7 | CC1CC(C)[C@H](O)C([C@H](O)CC2CC(=O)N(C)C(=O)C2)C1 (some centres not stated) | > 100 µM (inactive) | > 100 µM (inactive) | > 100 µM (inactive) | 82.4 µM (inactive) | > 100 µM (inactive) | 57 µM (inactive) | > 100 µM (inactive) | > 100 µM (inactive) |  | > 100 µM (inactive) | > 100 µM (inactive) | > 100 µM (inactive) | > 100 µM (inactive) | > 100 | > 100 µM (inactive) | > 100 µM (inactive) | > 100 µM (inactive) | > 100 µM (inactive) | > 100 µM (inactive) | > 100 µM (inactive)
8 | COC(=O)C(Cc1ccc(OC)cc1O)NC(=O)OC(C)(C)C (configuration not stated) | > 100 µM (inactive) | > 100 µM (inactive) | > 100 µM (inactive) | > 100 µM (inactive) | > 100 µM (inactive) | 96.6 µM (inactive) | > 100 µM (inactive) | > 100 µM (inactive) | > 100 µM (inactive) | 78.5 µM (inactive) | > 100 µM (inactive) | > 100 µM (inactive) | > 100 µM (inactive) | > 100 | > 100 µM (inactive) |  | > 100 µM (inactive) | 86.3 µM (inactive) | > 100 µM (inactive) | 
9 | CC(C)c1c(O)ccc2c1CCC1C(C)(C)CCCC21C (configuration not stated) | 17.3 µM (inactive) | 20.5 µM (inactive) | 14.8 µM (inactive) | 17.9 µM (inactive) | 20 µM (inactive) | 16.9 µM (inactive) | 17.4 µM (inactive) | 15.2 µM (inactive) | 19.5 µM (inactive) | 18.6 µM (inactive) | 19.1 µM (inactive) | 18.1 µM (inactive) | 19.9 µM (inactive) | 18.9 | 20.7 µM (inactive) | 22.9 µM (inactive) | 14.5 µM (inactive) | 17.3 µM (inactive) | 0.0173 µM (active) | 
10 | OCCNCNc1nc(NCNCCO)nc(N(CNCCO)CNCCO)n1 | 25.3 µM (inactive) | 39.4 µM (inactive) | 18.5 µM (inactive) | 30.6 µM (inactive) | 19.8 µM (inactive) | 21.3 µM (inactive) | 33.2 µM (inactive) | 18.8 µM (inactive) |  | 18.5 µM (inactive) | 23.2 µM (inactive) | 17.7 µM (inactive) | 23.7 µM (inactive) | 25.2 | 28.8 µM (inactive) | > 43.8 µM (inactive) | 22.3 µM (inactive) | 21.2 µM (inactive) | 23.7 µM (inactive) | 28.1 µM (inactive)
11 | CC(NC(=O)C(N)CC(=O)O)NC(=O)C1CCC1 (configuration not stated) | > 100 µM (inactive) | > 100 µM (inactive) | > 100 µM (inactive) |  | > 100 µM (inactive) | > 100 µM (inactive) | > 100 µM (inactive) | > 100 µM (inactive) |  | > 100 µM (inactive) | > 100 µM (inactive) | > 100 µM (inactive) | > 100 µM (inactive) | > 100 | > 100 µM (inactive) | > 100 µM (inactive) | > 100 µM (inactive) | > 100 µM (inactive) | > 100 µM (inactive) | > 100 µM (inactive)
12 | CCc1c(O)cc(=O)oc1-c1ccc(OC)c(OC)c1 | > 100 µM (inactive) | > 100 µM (inactive) | > 100 µM (inactive) | > 100 µM (inactive) | > 100 µM (inactive) | 64.1 µM (inactive) | > 100 µM (inactive) | > 100 µM (inactive) |  |  | > 100 µM (inactive) | > 100 µM (inactive) | > 100 µM (inactive) | > 100 | > 100 µM (inactive) |  | > 100 µM (inactive) | > 100 µM (inactive) | > 100 µM (inactive) | > 100 µM (inactive)
13 | CCOC(=O)C(=[N+]=[N-])C(=O)CSC#N | > 100 µM (inactive) | > 100 µM (inactive) | > 100 µM (inactive) | > 100 µM (inactive) | 57.3 µM (inactive) | 24.4 µM (inactive) | 31.2 µM (inactive) | 69.5 µM (inactive) |  | 55 µM (inactive) | 39.2 µM (inactive) | > 100 µM (inactive) | > 100 µM (inactive) | 51.4 | 94.8 µM (inactive) |  | 25.6 µM (inactive) | 84.7 µM (inactive) | > 100 µM (inactive) | > 100 µM (inactive)
14 | CCOC(=O)C1(C/C=C\CBr)CCCCCCCCCCC1=O (configuration not stated) | 14.9 µM (inactive) | 13.2 µM (inactive) | 17.1 µM (inactive) | 16.9 µM (inactive) | 13.5 µM (inactive) | 0.497 µM (active) | 2.9 µM (inactive) | 11.5 µM (inactive) |  | 8.22 µM (inactive) | 3.56 µM (inactive) | 6.34 µM (inactive) | 11 µM (inactive) | 16.7 | 8.69 µM (inactive) | 2.81 µM (inactive) | 12.6 µM (inactive) | 11.9 µM (inactive) | 12.1 µM (inactive) | 13.9 µM (inactive)
15 | CC(=O)Oc1ccn2nc(C)c(Cc3c(C)nn4ccc(OC(C)=O)cc34)c2c1 | > 100 µM (inactive) | > 100 µM (inactive) | > 100 µM (inactive) | 23 µM (inactive) | > 100 µM (inactive) | 33.2 µM (inactive) |  | 98.2 µM (inactive) | > 100 µM (inactive) | > 100 µM (inactive) | 49.8 µM (inactive) | > 100 µM (inactive) | > 100 µM (inactive) | > 100 | > 100 µM (inactive) |  | > 100 µM (inactive) | > 100 µM (inactive) | > 100 µM (inactive) | 
16 | O=C1c2ccccc2S(=O)(=O)c2ccccc21 | 61.1 µM (inactive) | > 100 µM (inactive) | > 100 µM (inactive) | > 100 µM (inactive) | > 100 µM (inactive) | > 100 µM (inactive) | > 100 µM (inactive) | > 100 µM (inactive) |  | > 100 µM (inactive) | > 100 µM (inactive) | > 100 µM (inactive) | > 100 µM (inactive) | > 100 | > 100 µM (inactive) | > 100 µM (inactive) | > 100 µM (inactive) | > 100 µM (inactive) | > 100 µM (inactive) | > 100 µM (inactive)
